Laboratory results as given in US8901308B2, “Triazole compounds that modulate Hsp90 activity” (Synta Pharmaceuticals Corp., priority 2004, dated 2014).
Entries after “also recorded” stand apart in the source; their conditions may differ.

Experiments:
[1] = tested on: c-kit in HEL92.1.7 cells; assay: FACS-based c-kit degradation assay in HEL92.1.7 cells; assay type: cell-based; conditions: about 18 h
Experimental: (§1) Two leukemia cell lines, HEL92.1.7 and Kasumi-1, were used for testing c-kit degradation induced by Hsp90 inhibitors of the invention. […] The cells were collected and centrifuged (SORVALL RT 6000D) at 1200 rpm for 5 min. The supernatants were discarded, and the cells were washed one time with 1×PBS. After centrifugation the cells were stained with FITC conjugated c-kit antibody (MBL International, Cat# K0105-4) in […] 1×PBS at 4° C. for 1 h. The samples were read and analysized with FACSCalibur flow cytometer (Becton Dicknson).

[2] = tested on: c-kit in Kasumi-1 cells; assay: FACS-based c-kit degradation assay in Kasumi-1 cells; assay type: cell-based; conditions: about 18 h
Experimental: as §1

[3] = tested on: c-kit in Kasumi-1 cells; assay: Western blot analysis of c-Kit in Kasumi-1 cells; assay type: cell-based
From the text: The results of the FACS analysis were confirmed with Western blot analysis (see FIG. 5). […] In contrast, 17-AAG had no effect of c-Kit protein levels.

[4] = tested on: RERF-LC-AI^IVP human lung tumor cells; assay: RERF-LC-AI^IVP nude mouse xenograft model; assay type: in vivo; conditions: for Growth rate of RERF-LC-AI^IVP tumors: 5 times per week, 15 doses
Experimental: The human squamous non-small cell lung cancer cell line, RERF-LC-AI (RCB0444; S. Kyoizumi, et al., Cancer. Res. 45:3274-3281, 1985), was obtained from the Riken Cell Bank (Tsukuba, Ibaraki, Japan). […] FBS was obtained from American Type Culture Collection (Manassas, Va., USA) and all other reagents were obtained from Invitrogen Corp. (Carlsbad, Calif., USA). Approximately 4−5×10(6) cells that had been cryopreserved in liquid nitrogen were rapidly thawed at 37° C. and transferred to a 175 cm^2 tissue culture flask containing 50 ml of growth media and then incubated at 37° C. in a 5% CO2 incubator.
The growth media was replaced every 2-3 days until the flask became 90% confluent, typically in 5-7 days. To passage and expand the cell line, a 90% confluent flask was washed with 10 ml of room temperature phosphate buffered saline (PBS) and the cells were disassociated by adding 5 ml 1× trypsin-EDTA (Invitrogen) and incubating at 37° C. until the cells detached from the surface of the flask. To inactivate the trypsin, 5 ml of growth media was added and then the contents of the flask were centrifuged to pellet the cells. The supernatant was aspirated and the cell pellet was resuspended in 10 ml of growth media and the cell number determined using a hemocytometer. Approximately 1-3×10(6) cells per flask were seeded into 175 cm^2 flasks containing 50 ml of growth media and incubated at 37° C. in a 5% CO2 incubator. When the flasks reached 90% confluence, the above passaging process was repeated until sufficient cells had been obtained for implantation into mice.
Seven to eight week old, female Crl:CD-1-nuBR (nude) mice were obtained from Charles River Laboratories (Wilmington, Mass., USA). Animals were housed 4-5/cage in micro-isolators, with a 12 hr/12 hr light/dark cycle, acclimated for at least 1 week prior to use and fed normal laboratory chow ad libitum. Studies were conducted on animals between 8 and 12 weeks of age at implantation. […] Using a 27 gauge needle and 1 cc syringe, 0.1 ml of the cell suspension was injected subcutaneously into the flank of each nude mouse. Tumor volumes (V) were calculated by caliper measurement of the width (W), length (L) and thickness (T) of tumors using the following formula: V=0.5236×(L×W×T).
In vivo passaged RERF-LC-AI tumor cells (RERF-LC-AI^IVP) were isolated to improve the rate of tumor implantation relative to the parental cell line in nude mice. RERF-LC-AI tumors were permitted to develop in vivo until they reached approximately 250 mm^3 in volume, which required approximately 3 weeks following implantation. Mice were euthanized via CO2 asphyxiation and their exteriors sterilized with 70% ethanol in a laminar flow hood. Using sterile technique, tumors were excised and diced in 50 ml PBS using a scalpel blade. […]

[5] = tested on: Hsp90 protein; assay: Malachite Green assay of ATPase activity of Hsp90; assay type: biochemical; conditions: 37° C., 4 hours
Experimental: Hsp90 protein was obtained from Stressgen (Cat#SPP-770). Assay buffer: 100 mM Tris-HCl, Ph7.4, 20 mM KCl, 6 mM MgCl2. […] Malachite green reagent was added to the reaction. […] The plate was read by an ELISA reader with an absorbance at 620 nm.

[6] = tested on: Her2, an Hsp90 client protein; assay: Degradation of Her2 in BT-474 cells (Western blot); assay type: cell-based, Human; conditions: overnight
Experimental: Human high-Her2 breast carcinoma BT474 (HTB-20), SK-BR-3 (HTB-30) and MCF-7 breast carcinoma (HTB-22) from American Type Culture Collection, VA, USA were grown in Dulbecco's modified Eagle's medium with 4 mM L-glutamine and antibiotics (100 IU/ml penicillin and 100 ug/ml streptomycine; GibcoBRL). To obtain exponential cell growth, cells were trypsinized, counted and seeded at a cell density of 0.5×10^6 cells/ml regularly, every 3 days. All experiments were performed on day 1 after cell passage.
After treatment, each cytoplasmic sample was prepared from 1×10^6 cells by incubation of cell lysis buffer (#9803, cell Signaling Technology) on ice for 10 minutes. The resulting supernatant used as the cytosol fractions were dissolved with sample buffer for SDS-PAGE and run on a SDS-PAGE gel, blotted onto a nitrocellulose membrane by using semi-dry transfer. Non-specific binding to nitrocellulose was blocked with 5% skim milk in TBS with 0.5% Tween at room temperature for 1 hour, then probed with anti-Her2/ErB2 mAb (rabbit IgG, #2242, Cell Signaling) and anti-Tubulin (T9026, Sigma) as housekeeping control protein. HRP-conjugated goat anti-rabbit IgG (H+L) and HRP-conjugated horse anti-mouse IgG (H+L) were used as secondary Ab (#7074, #7076, Cell Signaling) and LumiGLO reagent, 20× Peroxide (#7003, Cell Signaling) was used for visualization.

[7] = tested on: human tumor cell line MDA-MB-435S; assay: MDA-MB-435S nude mouse xenograft model; assay type: in vivo; conditions: 300 mg/kg body weight IP, 5 times per week for 3 weeks
Experimental: FBS was obtained from Sigma-Aldrich Corp. (St. Louis, Mo., USA), and all other reagents were obtained from Invitrogen Corp. (Carlsbad, Calif., USA). Approximately 4−5×10(6) cells that had been cryopreserved in liquid nitrogen were rapidly thawed at 37° C. and transferred to a 175 cm^2 tissue culture flask containing 50 ml of growth media and then incubated at 37° C. in a 5% CO2 incubator. The growth media was replaced every 2-3 days until the flask became 90% confluent, typically in 5-7 days. To passage and expand the cell line, a 90% confluent flask was washed with 10 ml of room temperature phosphate buffered saline (PBS) and the cells were disassociated by adding 5 ml 1× Trypsin-EDTA (Invitrogen) and incubating at 37° C. until the cells detached from the surface of the flask. To inactivate the trypsin, 5 ml of growth media was added and then the contents of the flask were centrifuged to pellet the cells. The supernatant was aspirated and the cell pellet was resuspended in 10 ml of growth media and the cell number determined using a hemocytometer. […]
Six to eight week old, female Crl:CD-1-nuBR (nude) mice were obtained from Charles River Laboratories (Wilmington, Mass., USA). […] Tumor volumes (V) were calculated by caliper measurement of the width (W), length (L) and thickness (T) of tumors using the following formula: V=[…]×(L×W×T). […]

**Q.** For `C=CCNC1=C2C[C@@H](C)C[C@H](OC)[C@H](O)[C@@H](C)/C=C(\C)[C@H](OC(N)=O)[C@@H](OC)/C=C\C=C(/C)C(=O)NC(=CC1=O)C2=O` [Compound 17-AAG, 17-allylamino-17-demethoxygeldanamycin, reference compound], which c-kit degradation ([1]; 0.5 μM) is on record?
**A.** could not induce c-kit degradation

**Q.** And the c-kit degradation ([2]; 0.5 μM)?
**A.** could not induce c-kit degradation

**Q.** What about the “c-Kit protein levels (Western blot)” value ([3]; concentration not given) of the same compound?
**A.** had no effect

**Q.** And the “Growth rate of RERF-LC-AI^IVP tumors” value ([4]; 75 mg/kg body weight i.p.)?
**A.** inhibited tumor growth; also recorded: decreased the growth rate

**Q.** What about the “Maximum tolerated dose in nude mice” value ([4]; i.p., dosed at approximately the maximum tolerated dose) of the same compound?
**A.** ~75 mg/kg body weight

**Q.** Which “ATPase activity of Hsp90” value ([5]; 4 μM) does the source give for `Oc1ccc(-c2nnc(S)n2-c2cccc3ccccc23)c(O)c1` [Compound 108, 3-(2,4-Dihydroxy-phenyl)-4-(naphthalen-1-yl)-5-mercapto-[1,2,4] triazole] here?
**A.** significant inhibition

**Q.** And the “ATPase activity of Hsp90” value ([5]; 40 μM)?
**A.** even greater inhibition

**Q.** What about the “Degradation of Her2” value ([6]; 0.5 μM) of the same compound?
**A.** partially degradated

**Q.** What about the “Degradation of Her2” value ([6]; 2 μM) of the same compound?
**A.** partially degradated

**Q.** What about the “Degradation of Her2” value ([6]; 5 μM) of the same compound?
**A.** almost completely degraded

**Q.** For `CCc1cc(-c2nnc(S)n2-c2cccc3ccccc23)c(O)cc1O` [Compound 49, 3-(2,4-Dihydroxy-5-ethyl-phenyl)-4-(naphthalen-1-yl)-5-mercapto-[1,2,4] triazole], which “Degradation of Her2” value ([6]; 0.5 μM) is on record?
**A.** partial degradated

**Q.** What about the “Degradation of Her2” value ([6]; 2 μM) of the same compound?
**A.** complete degradation

**Q.** And the “Degradation of Her2” value ([6]; 5 μM)?
**A.** complete degradation

**Q.** What about the “Toxicity (effect on body weights)” value [7] of the same compound?
**A.** not associated with significant toxicity

**Q.** And the “Growth rate of MDA-MB-435S tumors” value ([7]; compared with 100 mg/kg 17-AAG)?
**A.** decreased the growth rate

**Q.** How did the c-kit degradation ([1]; 0.05 μM) turn out when `CCc1cc(-c2nnc(S)n2-c2ccc(OC)c3c2ccn3C(C)C)c(O)cc1O` [Compound 188, 3-(2,4-Dihydroxy-5-ethyl-phenyl)-4-(1-isopropyl-7-methoxy-indol-4-yl)-5-mercapto-[1,2,4] triazole] was run?
**A.** induced c-kit degradation

**Q.** And the c-kit degradation ([1]; 0.5 μM)?
**A.** induced c-kit degradation

**Q.** And the c-kit degradation ([2]; 0.05 μM)?
**A.** induced c-kit degradation

**Q.** What about the c-kit degradation ([2]; 0.5 μM) of the same compound?
**A.** induced c-kit degradation

**Q.** And the “Growth rate of RERF-LC-AI^IVP tumors” value ([4]; 200 mg/kg body weight i.p.)?
**A.** inhibited tumor growth; also recorded: decreased the growth rate

**Q.** And the “Maximum tolerated dose in nude mice” value ([4]; mouse, in vivo, ip)?
**A.** ~200 mg/kg body weight

**Q.** What does the source list for `CC(C)c1cc(-c2nnc(S)n2-c2ccc3c(ccn3C)c2)c(O)cc1O` [Compound 221, 3-(2,4-dihydroxy-5-isopropyl-phenyl)-4-(N-methyl-indol-5-yl)-5-mercapto-[1,2,4] triazole]?
**A.** c-kit degradation ([1]; 0.05 μM): induced c-kit degradation; c-kit degradation ([1]; 0.5 μM): induced c-kit degradation; c-kit degradation ([2]; 0.05 μM): induced c-kit degradation; c-kit degradation ([2]; 0.5 μM): induced c-kit degradation; c-Kit protein levels (Western blot) ([3]; 100 nM): induced the degradation of c-Kit; c-Kit protein levels (Western blot) ([3]; 400 nM): induced the degradation of c-Kit
